The target in test [1] is T1, recombinant human PKLR (Homo sapiens, UniProt P30613).
T1 construct: His (N); purchased R&D Systems
Description: Human PKLR activation assay (Kinase-Glo Plus luminescent detection of generated ATP). Format: biochemical. The following applies: for EC50: read-out: hPKLR EC50; for Emax: read-out: hPKLR Emax (%). As for the experimental part: Compound activation of recombinant human PKLR pyruvate kinase activity was determined by biochemical assay. N-terminal His-tagged enzyme was sourced from R&D Systems and its substrates phosphoenolpyruvate (PEP) and ADP from Sigma-Aldrich and 2Bscientific Ltd, respectively. The Kinase-Glo® Plus luminescence assay was from Promega. All other reagents were from Sigma-Aldrich. Test Compounds were prepared as 10 mM DMSO stocks and dilution series prepared in DMSO for direct dilution into Assay Buffer comprising 50 mM imidazole, 50 mM KCl, 7 mM MgCl2, 0.01% Tween20, 0.05% BSA (pH 7.2).
Human PKLR was diluted into Assay Buffer to a final concentration of 5 pM. Enzyme-Assay Buffer mix was dispensed into 384-well shallow-well white-walled plates and Test Compounds added by acoustic dispense (Echo®, Labcyte Inc).
After 60 minutes' incubation on an orbital shaker (300 rpm, 26° C.), enzyme activity was quantified by the luminescent detection of generated ATP. Kinase-Glo® Plus reagent was added to each well and the plates incubated for a further 15 minutes on an orbital shaker in the dark (300 rpm, 26° C.) before luminescence measurement on a plate reader (PHERAstar® FSX, BMG Labtech).
Percentage activation was calculated by normalising […] signals to plate LOW (DMSO vehicle) and HIGH (5 μM TEPP-46) controls. EC50 and Emax values were determined from 4-parameter logistic fits of compound concentration-response curves.
(Kinase-Glo measures the ATP left after a reaction by luminescence.)

Test [2] deals with T2, recombinant human PKM2 (Homo sapiens, UniProt P14618).
T2 construct: His (N); purchased R&D Systems
T2 sequence (P14618 2-531 limits assumed): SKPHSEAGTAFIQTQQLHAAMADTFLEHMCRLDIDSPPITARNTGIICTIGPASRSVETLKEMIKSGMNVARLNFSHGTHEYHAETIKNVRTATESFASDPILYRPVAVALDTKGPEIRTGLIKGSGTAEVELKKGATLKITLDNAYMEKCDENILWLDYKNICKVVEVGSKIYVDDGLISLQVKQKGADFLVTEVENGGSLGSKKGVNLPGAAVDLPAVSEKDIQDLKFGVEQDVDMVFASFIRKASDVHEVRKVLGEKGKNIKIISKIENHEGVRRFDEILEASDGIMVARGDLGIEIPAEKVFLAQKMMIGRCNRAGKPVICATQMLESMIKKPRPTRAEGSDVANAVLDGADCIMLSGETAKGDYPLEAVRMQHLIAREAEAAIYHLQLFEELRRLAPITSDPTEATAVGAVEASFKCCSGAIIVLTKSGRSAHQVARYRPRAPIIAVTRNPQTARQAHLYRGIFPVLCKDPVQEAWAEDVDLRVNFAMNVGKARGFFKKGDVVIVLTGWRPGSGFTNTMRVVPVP
Description: Human PKM2 activation assay (Kinase-Glo Plus luminescent detection of generated ATP). The test is classed as biochemical. The following applies: for Emax: read-out: hPKM2 Emax; for EC50: read-out: hPKM2 EC50. In outline:
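N-His-tagged recombinant hPKM2 ([…]) with PEP and ADP was incubated with compound for 60 min at 26 °C, shaking, in 50 mM imidazole, 50 mM KCl, 7 mM MgCl2, 0.01% Tween20, 0.05% BSA, pH 7.2. ATP produced was read by Kinase-Glo Plus luminescence after 15 min.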

Where [3] appears, read: activation of recombinant human PKLR, 4-parameter logistic fit.
Where [4] appears, read: percentage activation normalised to DMSO vehicle (LOW) and 5 μM TEPP-46 (HIGH) controls.
Setting [5] is: percentage activation normalised to DMSO vehicle (LOW) and 5 μM TEPP-46 (HIGH).
[6] abbreviates: recombinant human PKM2 activation, 4-parameter logistic fit.
[7] abbreviates: data from repeat experiments (*).
The mark [8] stands for this setting: line of the repeat experiment (EC50 marked *).

Read-outs that look alike come from different tables or passages of the source.

A word on the EC50: it is the concentration giving half of the maximal effect. As usually defined, the Emax is the size of the effect at its maximum, as opposed to the concentration needed.

T1 sequence (P30613 whole entry): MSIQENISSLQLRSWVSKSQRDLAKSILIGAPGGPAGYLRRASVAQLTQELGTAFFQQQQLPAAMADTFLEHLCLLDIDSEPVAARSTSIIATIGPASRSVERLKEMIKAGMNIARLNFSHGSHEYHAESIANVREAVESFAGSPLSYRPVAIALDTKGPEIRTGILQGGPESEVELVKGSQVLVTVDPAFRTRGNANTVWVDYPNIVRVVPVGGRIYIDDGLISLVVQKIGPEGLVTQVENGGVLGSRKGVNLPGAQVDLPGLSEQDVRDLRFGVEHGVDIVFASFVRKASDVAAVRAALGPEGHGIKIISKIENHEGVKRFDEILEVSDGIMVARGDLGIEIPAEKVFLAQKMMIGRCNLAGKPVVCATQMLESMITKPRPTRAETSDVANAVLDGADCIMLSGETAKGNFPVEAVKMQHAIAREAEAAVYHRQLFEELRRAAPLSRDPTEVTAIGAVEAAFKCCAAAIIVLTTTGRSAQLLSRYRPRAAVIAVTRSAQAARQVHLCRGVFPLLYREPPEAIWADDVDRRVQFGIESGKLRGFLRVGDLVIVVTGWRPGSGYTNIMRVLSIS

As for `C[C@H]1Cc2cc(S(=O)(=O)c3ccc4c(=O)n(Cc5ccn(C)n5)ncc4c3)ccc2O1` [Example 219, (S)-2-((1-methyl-1H-pyrazol-3-yl)methyl)-6-((2-methyl-2,3-dihydrobenzofuran-5-yl)sulfonyl)phthalazin-1(2H)-one], the concentration giving a half-maximal response (EC50) in test [1] (setting [3]) is 10.2 nM; in test [2] (setting [6]), 44.2 nM. For the same compound, the figures for the Emax in test [1] (setting [4]) and in test [2] (setting [5]) were 124% and 106%, respectively.
Regarding `O=c1c2ccc(S(=O)(=O)c3ccc4c(c3)NCCO4)cc2cnn1Cc1cc[nH]n1` [Example 221, 2-((1H-pyrazol-3-yl)methyl)-6-((3,4-dihydro-2H-benzo[b][1,4]oxazin-6-yl)sulfonyl)phthalazin-1(2H)-one], the EC50 in test [1] (setting [3]) came out at 3.4 nM; in test [2] (setting [6]), 42.8 nM. Moreover, the Emax in test [1] (setting [4]) was found to be 134%; in test [2] (setting [5]) it was 105%.
Turning to `O=c1c2ccc(S(=O)(=O)c3ccc4occc4n3)cc2cnn1Cc1cc[nH]n1` [Example 223, 2-((1H-pyrazol-3-yl)methyl)-6-(furo[3,2-b]pyridin-5-ylsulfonyl)phthalazin-1(2H)-one], the concentration giving a half-maximal response (EC50) was 4.9 nM in test [1] (setting [3]) and 45 nM in test [2] (setting [6]). Moreover, the Emax was 132% in test [1] (setting [4]) and 107% in test [2] (setting [5]).
The corresponding values for `O=c1c2ccc(S(=O)(=O)c3cnc4occc4c3)cc2cnn1Cc1cc[nH]n1` [Example 225, 2-((1H-pyrazol-3-yl)methyl)-6-(furo[2,3-b]pyridin-5-ylsulfonyl)phthalazin-1(2H)-one] are 8.6 nM, 50.3 nM, 117% and 114%.
In the case of `O=c1c2ccc(S(=O)(=O)c3cnn(C4CC4)c3)cc2cnn1Cc1cc[nH]n1` [Example 228, 2-((1H-pyrazol-3-yl)methyl)-6-((1-cyclopropyl-1H-pyrazol-4-yl)sulfonyl)phthalazin-1(2H)-one], the EC50 in test [1] (setting [3]) was determined as 21.2 nM; in test [2] (setting [7]), 41.5 nM; in test [2] (setting [6]), 40.4 nM. The figures for the Emax in test [1] (setting [4]), in test [2] (setting [8]) and in test [2] (setting [5]) were 119%, 112% and 116%, respectively.
`Cc1cccc(Cn2ncc3cc(S(=O)(=O)c4cn[nH]c4)ccc3c2=O)n1` [Example 238, 6-((1H-pyrazol-4-yl)sulfonyl)-2-((6-methylpyridin-2-yl)methyl)phthalazin-1(2H)-one]: the results for the concentration giving a half-maximal response (EC50) in test [1] (setting [3]) and in test [2] (setting [6]) were 14.4 nM and 125 nM, respectively. Also, the maximum response (Emax) in test [1] (setting [4]) is 127%; in test [2] (setting [5]), 108%.
On to `Cc1cccc(Cn2ncc3cc(S(=O)(=O)c4cc[nH]n4)ccc3c2=O)n1` [Example 239, 6-((1H-pyrazol-3-yl)sulfonyl)-2-((6-methylpyridin-2-yl)methyl)phthalazin-1(2H)-one], for which the results for the half-maximal effective concentration (EC50) in test [1] (setting [3]) and in test [2] (setting [6]) were 24.8 nM and 109 nM, respectively. The values for the Emax in test [1] (setting [4]) and in test [2] (setting [5]) were 135% and 106%, respectively.
On to `Cn1cc(S(=O)(=O)c2ccc3c(=O)n(Cc4cc[nH]n4)ncc3c2)cn1` [Example 240, 2-((1H-pyrazol-3-yl)methyl)-6-((1-methyl-1H-pyrazol-4-yl)sulfonyl)phthalazin-1(2H)-one], for which the concentration giving a half-maximal response (EC50) in test [1] (setting [3]) is 30.3 nM; in test [2] (setting [6]), 159 nM. Also, the maximum response (Emax) in test [1] (setting [4]) was 125%; in test [2] (setting [5]), 107%.
With `O=c1c2ccc(S(=O)(=O)c3cnn(CCO)c3)cc2cnn1Cc1cc[nH]n1` [Example 241, 2-((1H-pyrazol-3-yl)methyl)-6-((1-(2-hydroxyethyl)-1H-pyrazol-4-yl)sulfonyl)phthalazin-1(2H)-one], the figures for the EC50 in test [1] (setting [3]) and in test [2] (setting [6]) were 27.5 nM and 118 nM, respectively. The results for the Emax in test [1] (setting [4]) and in test [2] (setting [5]) were 129% and 106%, respectively.
With `Cn1ccc(Cn2ncc3cc(S(=O)(=O)c4ccccc4)c(F)cc3c2=O)n1` [Example 242, 7-fluoro-2-((1-methyl-1H-pyrazol-3-yl)methyl)-6-(phenylsulfonyl)phthalazin-1(2H)-one], the concentration giving a half-maximal response (EC50) in test [1] (setting [3]) amounted to 22.2 nM; in test [2] (setting [6]), 102 nM. Also, the results for the Emax in test [1] (setting [4]) and in test [2] (setting [5]) were 134% and 107%, respectively.
Regarding `Cn1ccc(Cn2ncc3cc(S(=O)(=O)c4ccccc4)c(NCCO)cc3c2=O)n1` [Example 244, 7-((2-hydroxyethyl)amino)-2-((1-methyl-1H-pyrazol-3-yl)methyl)-6-(phenylsulfonyl)phthalazin-1(2H)-one], the 50% effective concentration (EC50) came to 27.4 nM in test [1] (setting [3]) and 206 nM in test [2] (setting [6]). For the same compound, the values for the Emax in test [1] (setting [4]) and in test [2] (setting [5]) were 123% and 105%, respectively.
Take `Cc1nc(Cn2ncc3cc(S(=O)(=O)c4cn[nH]c4)ccc3c2=O)ccc1F` [Example 251, 6-((1H-pyrazol-4-yl)sulfonyl)-2-((5-fluoro-6-methylpyridin-2-yl)methyl)phthalazin-1(2H)-one]: the EC50 in test [1] (setting [3]) came to 11.3 nM; in test [2] (setting [6]) it was 111 nM. For the same compound, the Emax in test [1] (setting [4]) was determined as 111%; in test [2] (setting [5]) it was 116%.
As to `Cc1ccc(F)c(Cn2ncc3cc(S(=O)(=O)c4cn[nH]c4)ccc3c2=O)n1` [Example 252, 6-((1H-pyrazol-4-yl)sulfonyl)-2-((3-fluoro-6-methylpyridin-2-yl)methyl)phthalazin-1(2H)-one], the figures for the EC50 in test [1] (setting [3]) and in test [2] (setting [6]) were 18 nM and 107 nM, respectively. In addition, the Emax in test [1] (setting [4]) was found to be 120%; in test [2] (setting [5]), 105%.
On to `O=c1c2ccc(S(=O)(=O)c3cn[nH]c3)cc2cnn1Cc1ccc2c(n1)CCO2` [Example 253, 6-(1H-pyrazol-4-ylsulfonyl)-2-((2,3-dihydrofuro[3,2-b]pyridin-5-yl)methyl)phthalazin-1(2H)-one], for which the concentration giving a half-maximal response (EC50) in test [1] (* data from repeat experiments) came to 4.32 nM; in test [1] (setting [3]), 5.59 nM; in test [2] (setting [7]), 21.6 nM; in test [2] (setting [6]), 20.1 nM. Moreover, the Emax was 118% in test [1] (line of the repeat experiments (EC50 marked *)), 107% in test [1] (setting [4]), 105% in test [2] (setting [8]) and 104% in test [2] (setting [5]).
As to `O=c1c2ccc(S(=O)(=O)c3ccc4occc4n3)cc2cnn1Cc1ccn(C2CC2)n1` [Example 256, 2-((1-cyclopropyl-1H-pyrazol-3-yl)methyl)-6-(furo[3,2-b]pyridin-5-ylsulfonyl)phthalazin-1(2H)-one], the figures for the EC50 in test [1] (setting [3]) and in test [2] (setting [6]) were 3.33 nM and 31.7 nM, respectively. Moreover, the maximal effect (Emax) in test [1] (setting [4]) was determined as 136%; in test [2] (setting [5]) it was 95.5%.
Consider `O=c1c2ccc(S(=O)(=O)c3cc4c(cn3)OCC4)cc2cnn1Cc1cc[nH]n1` [Example 258, 2-((1H-pyrazol-3-yl)methyl)-6-((2,3-dihydrofuro[2,3-c]pyridin-5-yl)sulfonyl)phthalazin-1(2H)-one], for which the EC50 in test [1] (setting [3]) amounted to 15.3 nM; in test [2] (setting [6]), 88.8 nM. The Emax in test [1] (setting [4]) was 142%; in test [2] (setting [5]) it was 108%.
For `Cc1cccc(Cn2ncc3cc(S(=O)(=O)c4cnn(C5CC5)c4)ccc3c2=O)n1` [Example 259, 6-((1-cyclopropyl-1H-pyrazol-4-yl)sulfonyl)-2-((6-methylpyridin-2-yl)methyl)phthalazin-1(2H)-one], the concentration for a half-maximal effect (EC50) in test [1] (setting [3]) amounted to 13.1 nM; in test [2] (setting [6]), 46.1 nM. In addition, the maximum response (Emax) in test [1] (setting [4]) worked out at 123%; in test [2] (setting [5]), 96.7%.
The corresponding values for `O=c1c2cc(NCCO)c(S(=O)(=O)c3ccccc3)cc2cnn1Cc1ccn(C2CC2)n1` [Example 265, 2-((1-cyclopropyl-1H-pyrazol-3-yl)methyl)-7-((2-hydroxyethyl)amino)-6-(phenylsulfonyl)phthalazin-1(2H)-one] are 13.5 nM, 134 nM, 127% and 114%.
For the compound `Cc1cccc(Cn2ncc3cc(S(=O)(=O)c4cnn(C5COC5)c4)ccc3c2=O)n1` [Example 270, 2-((6-methylpyridin-2-yl)methyl)-6-((1-(oxetan-3-yl)-1H-pyrazol-4-yl)sulfonyl)phthalazin-1(2H)-one], the concentration giving a half-maximal response (EC50) was determined as 108 nM in test [1] (setting [3]) and 138 nM in test [2] (setting [6]). For the same compound, the Emax in test [1] (setting [4]) came to 136%; in test [2] (setting [5]), 103%.
`COc1ccc(Cn2ncc3cc(S(=O)(=O)c4cnn(CCO)c4)ccc3c2=O)cn1` [Example 271, 6-((1-(2-hydroxyethyl)-1H-pyrazol-4-yl)sulfonyl)-2-((6-methoxypyridin-3-yl)methyl)phthalazin-1(2H)-one]: the concentration for a half-maximal effect (EC50) in test [1] (setting [3]) stood at 26.4 nM; in test [2] (setting [6]) it was 54.5 nM. The Emax in test [1] (setting [4]) came to 119%; in test [2] (setting [5]), 81.3%.

The values above are taken from patent US20260152487A1 (Sitryx Therapeutics Limited, priority 2021, published 2026).
